Experimental data taken from publication PMC6269967, “Evaluation of the Interaction between Long Telomeric DNA and Macrocyclic Hexaoxazole (6OTD) Dimer of a G-quadruplex Ligand” (Molecules, 2013).
Where two headings read alike, the source gives them in different places.

Tests used:
telomerase [1] = conditions: TRAP assay; ref [17],[18],[19],[20],[21],[22]; read-out: telomerase inhibitory activity, IC50; cited from earlier work
Text: At the end of chromosomes, there exists a characteristic region called the telomere. The telomere is composed of double-stranded tandem repeats of (TTAGGG/AATCCC)n sequence amounting to 2–30 kb, to which telomere binding proteins are bound. These sequences are shortened at each cell division, ultimately inducing cell senescence. At the extreme end of these duplex repeats there is a single-stranded 3' overhang, termed the 3' G-tail, consisting of ca. 50−250 nucleotides in total. The G-tail sequence is considered to form G-quadruplexes (G4s), one of the higher-order structures ...

telomerase [2] = test: Telomerase repeat amplification protocol (TRAP) assay, cell-free, PC3 cell lysate; assay type: biochemical; conditions: telomerase reaction 30 min, 20 °C, average of two independent experiments, read-out: telomerase inhibitory activity, IC50
Method: Finally, we examined the telomerase inhibitory activities of the L2H2-6OTD monomer (2) and its dimer 3 in a cell-free system by telomerase repeat amplification protocol (TRAP) assay using PC3 cell lysate. Telomerase is known to elongate various lengths of telomere sequences, and the stabilization ability of each ligand can be evaluated with TRAP assay.
Telomerase repeat amplification protocol (TRAP) assays were conducted as follows; 1 × 10^5 of PC3 cells were lysed with 200 μL of TRAP lysis buffer, placed on ice for 30 min, and centrifuged for 20 min (15,000 rpm, 4 °C). This TRAP lysate (2.0 μL) was mixed with 10×T-PCR buffer (5.0 μL), 2.5 mM dNTPs (1.0 μL), 50 ng/μL TS primer (5'-d[AATCCGTCGAGCAGAGTT]-3', 2.0 μL), 0.2 pM TSNT (5'-d[[…]]-3', 0.5 μL), DEPC (Diethylpyro carbonate) solution in MilliQ water (30 μL), compounds (DMSO solution, 5.0 μL), and placed on ice for 30 min. After the telomerase reactions (30 min, 20 °C), the reacting solution was placed on ice, 2.0 μL of 10 μM NT primer (5'-d[ATCGCTTCTCGGCCTTTT]-3’), 2.0 μL of […] (5'-d[GCGCGG (CTTACC)3CTAACC]-3') and 0.5 μL of Gene Taq (Nippon Gene, Tokyo, Japan) were added. The three-step PCR was performed: 27 cycles of 94 °C for 25 s, 50 °C for 25 s, and 72 °C for 45 s. […] IC50 value was calculated from average of two independent experiments.

telo24 [3] = conditions: telo24 (10 μM), ligand 4 eq.; CD at 295 nm, 50 mM Tris–HCl pH 7.5, 100 mM KCl; 1.0 °C/min; ligand-free Tm 59; ref [53]; cited from earlier work
Text: (§1) Table 1 Tm values (°C) of telomeric DNAs in the absence or presence of G4 ligands 2 and 3 ^a,b,c. | column: Tm

telo48 = conditions: CD at 295 nm, 50 mM Tris–HCl pH 7.5, 100 mM KCl, ref [53], cited from earlier work
Text: as §1

[4] = test system: long telomeric DNAs telo48, 72, and 96; conditions: ref [53]; cited from earlier work
Text: (§2) For evaluations of interaction and stabilization of telomeric DNA with G4 ligands, telo24 DNA, i.e., four sets of (TTAGGG) repeats consisting of 24 bases in total, has been usually used as a telomeric DNA model, because it is a minimum length able to form one unit of G4 structure.

telo24 [5] = conditions: earlier work of the authors, reference not given; cited from earlier work
Text: as §2

IC50 (telomerase [2])	Compound	IC50 (telomerase [1])	Tm (telo24 [3])	Tm (telo48; DNA printed telo48 (fourth group), ligand 16 eq., ligand-free Tm 55)	Tm (telo48; DNA printed telo48 (third group), ligand 12 eq., ligand-free Tm 55)	Tm (telo48; telo48, ligand 8 eq., 1.0 °C/min, ligand-free Tm 57)	interaction mode [4]	interaction mode (telo24 [5])
–	Cc1oc2nc1-c1nc(co1)-c1nc(co1)-c1nc(co1)-c1nc(co1)-c1nc(co1)C1=NC(CS1)c1nc-2c(C)o1 (centres unmarked) [telomestatin]	5 nM	–	–	–	–	–	–
15 nM	NCCCC[C@@H]1NC(=O)c2coc(n2)-c2coc(n2)-c2coc(n2)[C@H](CCCCN)NC(=O)c2coc(n2)-c2coc(n2)-c2coc1n2 [compound 2]	–	75 °C	70 °C	73 °C	76 °C	each telo24 unit in the long telomeric DNAs interacted with two molecules of L2H2-6OTD (2) in an end-stacking mode, and were induced to take anti-parallel-type topology	strongly interacts with telo24 to form anti-parallel-type G4 structure in an end-stacking mode with two molecules of 2
